Earlier results in publication PMC10458307, “New Scaffolds of Proteasome Inhibitors: Boosting Anticancer Potential by Exploiting the Synergy of In Silico and In Vitro Methodologies” (Pharmaceuticals, 2023).
Peptide text beside a SMILES is read from it. * marks the point of attachment. Cbz = O=C(OCc1ccccc1)*

Test system: proteasome T-L activity
Set-up: method as in PMID 16286248
Details: literature value; cited from earlier work

Row | Compound | IC50
1 | C[C@@]12OC(=O)[C@]1([C@@H](O)[C@@H]1C=CCCC1)NC(=O)[C@@H]2CCCl [Marizomib, marizomib] | 28 nM

Test system: proteasome C-L active site
Details: literature values; ref 34 (bortezomib), 35 (ixazomib); cited from earlier work

Row | Compound | IC50
2 | CC(C)C[C@H](NC(=O)CNC(=O)c1cc(Cl)ccc1Cl)B(O)O [Ixazomib, ixazomib] | 31 nM

Test system: proteasome CT-L active site
Details: literature values of known proteasome inhibitors; reference per compound; cited from earlier work

Row | Compound | IC50
3 | O=c1cc(-c2ccc(O)cc2)oc2cc(O)cc(O)c12 [Apigenin] | 1800 nM
4 | C/C=C\NC(=O)[C@H]1NC(=O)[C@H](CC(N)=O)NC(=O)[C@@H](NC(=O)C(=O)[C@@H](C)CC)Cc2ccc(O)c(c2)-c2cccc3c2NC(=O)[C@@]3(O)[C@@H]1O [TMC-95A] | 5.4 nM
5 | Oc1cc(O)c2cc(O)c(-c3cc(O)c(O)c(O)c3)[o+]c2c1 [Delphinidin] | 32400 nM
6 | CC(C)C[C@@H](C=O)NC(=O)[C@H](CC(C)C)NC(=O)[C@H](CC(C)C)NC(=O)OCc1ccccc1 [MG-132] (Cbz-Leu-Leu-Leu-aldehyde) | 40 nM
7 | CCCCCCCCC[C@@H](O)CC(=O)N[C@@H](CC(N)=O)C(=O)N[C@@H](CCC(N)=O)C(=O)N[C@H](C=O)CC(C)C [Fellutamide B] | 9.4 nM
8 | CC[C@H](C)[C@H](NC(=O)[C@H]([C@@H](C)CC)N(C)C(C)=O)C(=O)N[C@H](C(=O)N[C@@H](CC(C)C)C(=O)[C@@]1(C)CO1)[C@@H](C)O [Epoxomicin] | 47 nM
9 | O=c1c(O)c(-c2ccc(O)c(O)c2)oc2cc(O)cc(O)c12 [Quercetin] | 3500 nM
10 | Oc1cc(O)c2cc(O)c(-c3ccc(O)c(O)c3)[o+]c2c1 [Cyanidin] | 18400 nM
11 | COc1cc(-c2[o+]c3cc(O)cc(O)c3cc2O)cc(OC)c1O [Malvidin] | 32000 nM
12 | O=c1c(O)c(-c2ccc(O)cc2)oc2cc(O)cc(O)c12 [Kaempferol] | 10500 nM
